Assay results reported in PubChem BioAssay AID330 (DTP/NCI, 2004).
Values joined by “and” are separate entries in the source; they are usually repeats but may differ in a detail not shown here. Equal values may be shown once. Inconclusive results and toxic doses are left out.

Test system: P388 leukemia ip, CD2F1 mice, survival T/C
Assay: NCI In Vivo Anticancer Drug Screen. Data for tumor model P388 Leukemia (intraperitoneal) in CD2F1 (CDF1) mice
Conditions: endpoint: median survival time, higher = longer survival
How it was run: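 Mice carrying the transplanted tumor received test compound or vehicle. Survival was recorded in each group, and the value is the treated-group measurement divided by that of the vehicle-treated control group.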

[1] = dose: 50.0 mg/kg/injection, schedule: Q01DX005 (ip), vehicle: saline
[2] = dose: 100.0 mg/kg/injection, schedule: Q01DX005 (ip), vehicle: saline
[3] = dose: 200.0 mg/kg/injection, schedule: Q01DX005 (ip), vehicle: saline
[4] = dose: 6.25 mg/kg/injection, schedule: Q01DX009 (ip), vehicle: saline with Tween-80
[5] = dose: 12.5 mg/kg/injection, schedule: Q01DX009 (ip), vehicle: saline with Tween-80
[6] = dose: 25.0 mg/kg/injection, schedule: Q01DX009 (ip), vehicle: saline with Tween-80
[7] = dose: 50.0 mg/kg/injection, schedule: Q01DX009 (ip), vehicle: saline with Tween-80
[8] = dose: 100.0 mg/kg/injection, schedule: Q01DX009 (ip), vehicle: saline with Tween-80
[9] = dose: 200.0 mg/kg/injection, schedule: Q01DX009 (ip), vehicle: saline with Tween-80
[10] = dose: 60.0 mg/kg/injection, schedule: Q01DX005 (ip), vehicle: saline with Tween-80
[11] = dose: 120.0 mg/kg/injection, schedule: Q01DX005 (ip), vehicle: saline with Tween-80
[12] = dose: 240.0 mg/kg/injection, schedule: Q01DX005 (ip), vehicle: saline with Tween-80
[13] = dose: 50.0 mg/kg/injection, schedule: Q01DX005 (ip), vehicle: Klucel (hydroxypropylcellulose) (HPC)
[14] = dose: 50.0 mg/kg/injection, schedule: Q01DX009 (ip), vehicle: Klucel (hydroxypropylcellulose) (HPC)
[15] = dose: 100.0 mg/kg/injection, schedule: Q01DX009 (ip), vehicle: Klucel (hydroxypropylcellulose) (HPC)
[16] = dose: 200.0 mg/kg/injection, schedule: Q01DX009 (ip), vehicle: Klucel (hydroxypropylcellulose) (HPC)
[17] = dose: 100.0 mg/kg/injection, schedule: Q01DX005 (ip), vehicle: Klucel (hydroxypropylcellulose) (HPC)
[18] = dose: 200.0 mg/kg/injection, schedule: Q01DX005 (ip), vehicle: Klucel (hydroxypropylcellulose) (HPC)
[19] = dose: 25.0 mg/kg/injection, schedule: Q01DX009 (ip), vehicle: saline
[20] = dose: 50.0 mg/kg/injection, schedule: Q01DX009 (ip), vehicle: saline

Structure (SMILES): COC(=O)c1c[n+]([O-])ccc1OC
- T/C [1]: 102 % of control
- T/C [2]: 106 % of control
- T/C [3]: 102 % of control

Structure (SMILES): Cc1oc2c(c(=O)c1C)CN(Cc1ccccc1)CC2
- T/C (dose: 100.0 mg/kg/injection, schedule: Q01DX001 (ip), vehicle: saline with Tween-80): 100 % of control
- T/C (dose: 200.0 mg/kg/injection, schedule: Q01DX001 (ip), vehicle: saline with Tween-80): 100 % of control
- T/C (dose: 400.0 mg/kg/injection, schedule: Q01DX001 (ip), vehicle: saline with Tween-80): 99 % of control

Structure (SMILES): COC(=O)CCC1=C(C)c2cc3cc(C)c(cc4cc(C)c(cc5nc(cc1n2)C(CCC(=O)OC)=C5C)[nH]4)[nH]3
- T/C (dose: 0.75 mg/kg/injection, schedule: Q01DX005 (ip), vehicle: saline with Tween-80): 96 % of control
- T/C (dose: 1.5 mg/kg/injection, schedule: Q01DX005 (ip), vehicle: saline with Tween-80): 98 % of control
- T/C (dose: 3.0 mg/kg/injection, schedule: Q01DX005 (ip), vehicle: saline with Tween-80): 91 % of control
- T/C (dose: 3.12 mg/kg/injection, schedule: Q01DX005 (ip), vehicle: saline with Tween-80): 90 % of control

Structure (SMILES): O=C1CC(c2ccc(Cl)cc2Cl)Oc2ccc(Cl)cc21 (centres undefined)
- T/C [4]: 95 % of control
- T/C [5]: 96 % of control
- T/C [6]: 95 % of control
- T/C [7]: 89 % of control
- T/C [8]: 87 % of control and 90 % of control
- T/C [9]: 90 % of control
- T/C (dose: 400.0 mg/kg/injection, schedule: Q01DX009 (ip), vehicle: saline with Tween-80): 96 % of control

Structure (SMILES): CCOCCOC(=O)Nc1c(Cl)cccc1Cl
- T/C [10]: 101 % of control
- T/C [11]: 96 % of control
- T/C [12]: 95 % of control

Structure (SMILES): Fc1ccc(CSC(=S)Nc2ccc(Br)cc2)cc1
- T/C (dose: 50.0 mg/kg/injection, schedule: Q01DX009 (ip), vehicle: suspension in saline): 100 % of control
- T/C (dose: 100.0 mg/kg/injection, schedule: Q01DX009 (ip), vehicle: suspension in saline): 108 % of control
- T/C (dose: 200.0 mg/kg/injection, schedule: Q01DX009 (ip), vehicle: suspension in saline): 101 % of control

Structure (SMILES): COC(=O)c1cc(-c2ccc([N+](=O)[O-])cc2)c2c(=O)n(-c3ccccc3)[nH]c2n1
- T/C [10]: 94 % of control
- T/C [11]: 87 % of control
- T/C [12]: 88 % of control

Structure (SMILES): Cc1c(CNc2ccc(C(=O)NC(CC(=O)O)C(=O)O)cc2)ccc2nc(N)nc(N)c12 (centres undefined)
- T/C (dose: 12.5 mg/kg/injection, schedule: Q04DX003 (ip), vehicle: saline with Tween-80): 159 % of control
- T/C (dose: 16.5 mg/kg/injection, schedule: Q04DX003 (ip), vehicle: saline with Tween-80): 200 % of control

Structure (SMILES): C=C1C2CCC3C45C=NCC(C)(CCC4)C5CCC3(C2)C1OC(C)=O (centres undefined)
- T/C (dose: 2.0 mg/kg/injection, schedule: Q01DX009 (ip), vehicle: Klucel (hydroxypropylcellulose) (HPC)): 104 % of control
- T/C (dose: 4.0 mg/kg/injection, schedule: Q01DX009 (ip), vehicle: Klucel (hydroxypropylcellulose) (HPC)): 94 % of control
- T/C (dose: 8.0 mg/kg/injection, schedule: Q01DX009 (ip), vehicle: Klucel (hydroxypropylcellulose) (HPC)): 104 % of control
- T/C (dose: 16.0 mg/kg/injection, schedule: Q01DX009 (ip), vehicle: Klucel (hydroxypropylcellulose) (HPC)): 93 % of control

Structure (SMILES): O=c1oc(-c2ccccc2)nc2c1sc1nc(-c3ccccc3)oc(=O)c12
- T/C (dose: 1.56 mg/kg/injection, schedule: Q01DX005 (ip), vehicle: Klucel (hydroxypropylcellulose) (HPC)): 93 % of control
- T/C (dose: 3.12 mg/kg/injection, schedule: Q01DX005 (ip), vehicle: Klucel (hydroxypropylcellulose) (HPC)): 101 % of control and 91 % of control and 96 % of control
- T/C (dose: 6.25 mg/kg/injection, schedule: Q01DX005 (ip), vehicle: Klucel (hydroxypropylcellulose) (HPC)): 87 % of control and 88 % of control and 89 % of control
- T/C [13]: 88 % of control and 92 % of control

Structure (SMILES): Cc1cc(C(C)CC(=O)O)c(C)c(C)c1C (centres undefined)
- T/C [7]: 96 % of control
- T/C [8]: 93 % of control
- T/C [9]: 108 % of control

Structure (SMILES): O=C1CSC(=S)N1c1ccc(Br)cc1
- T/C [14]: 106 % of control
- T/C [15]: 105 % of control
- T/C [16]: 108 % of control

Structure (SMILES): COC(=O)/C(C)=C\n1ccccc1=O
- T/C (dose: 60.0 mg/kg/injection, schedule: Q01DX005 (ip), vehicle: saline): 97 % of control
- T/C (dose: 120.0 mg/kg/injection, schedule: Q01DX005 (ip), vehicle: saline): 99 % of control
- T/C (dose: 240.0 mg/kg/injection, schedule: Q01DX005 (ip), vehicle: saline): 98 % of control

Structure (SMILES): Brc1ccccc1CN=Cc1ccc2c(c1)OCO2
- T/C [13]: 101 % of control
- T/C [17]: 105 % of control
- T/C [18]: 103 % of control

Structure (SMILES): Cn1[nH]c2[nH]c(=S)sc(=S)c2c1=O
- T/C (dose: 25.0 mg/kg/injection, schedule: Q01DX005 (ip), vehicle: Klucel (hydroxypropylcellulose) (HPC)): 109 % of control
- T/C [13]: 109 % of control
- T/C [17]: 98 % of control
- T/C [18]: 104 % of control

Structure (SMILES): CN=C1OC2(c3ccccc3)C3=C(OC(=NC)N2C)C(=O)OC3(c2ccccc2)N1C (centres undefined)
- T/C (dose: 60.0 mg/kg/injection, schedule: Q01DX005 (ip), vehicle: Klucel (hydroxypropylcellulose) (HPC)): 98 % of control
- T/C (dose: 120.0 mg/kg/injection, schedule: Q01DX005 (ip), vehicle: Klucel (hydroxypropylcellulose) (HPC)): 95 % of control
- T/C (dose: 240.0 mg/kg/injection, schedule: Q01DX005 (ip), vehicle: Klucel (hydroxypropylcellulose) (HPC)): 91 % of control

Structure (SMILES): O=c1oc(-c2ccc(Cl)c([N+](=O)[O-])c2)ns1
- T/C [15]: 107 % of control
- T/C [16]: 113 % of control

Structure (SMILES): COc1ccc2c(c1)OC1COc3cc(OC)c(OC)cc3C1C2=O (centres undefined)
- T/C (dose: 12.5 mg/kg/injection, schedule: Q01DX009 (ip), vehicle: saline): 101 % of control
- T/C [19]: 94 % of control
- T/C [20]: 92 % of control
- T/C (dose: 100.0 mg/kg/injection, schedule: Q01DX009 (ip), vehicle: saline): 93 % of control

Structure (SMILES): Nc1ccc2c(c1)CN1C(=O)c3ccccc3C1=N2
- T/C [4]: 100 % of control
- T/C [5]: 93 % of control
- T/C (dose: 22.2 mg/kg/injection, schedule: Q01DX009 (ip), vehicle: saline with Tween-80): 111 % of control
- T/C [6]: 96 % of control
- T/C [19]: 91 % of control
- T/C (dose: 30.0 mg/kg/injection, schedule: Q01DX009 (ip), vehicle: saline with Tween-80): 104 % of control
- T/C (dose: 33.4 mg/kg/injection, schedule: Q01DX009 (oral), vehicle: saline with Tween-80): 97 % of control
- T/C (dose: 40.0 mg/kg/injection, schedule: Q01DX009 (ip), vehicle: saline with Tween-80): 90 % of control
- T/C [20]: 161 % of control
- T/C (dose: 50.0 mg/kg/injection, schedule: Q01DX009 (oral), vehicle: saline with Tween-80): 108 % of control
- T/C (dose: 60.0 mg/kg/injection, schedule: Q01DX009 (ip), vehicle: saline with Tween-80): 119 % of control
- T/C (dose: 75.0 mg/kg/injection, schedule: Q01DX009 (oral), vehicle: saline with Tween-80): 108 % of control
- T/C [8]: 100 % of control and 93 % of control
- T/C (dose: 112.4 mg/kg/injection, schedule: Q01DX009 (ip), vehicle: saline with Tween-80): 121 % of control
- T/C (dose: 112.4 mg/kg/injection, schedule: Q01DX009 (oral), vehicle: saline with Tween-80): 117 % of control
- T/C (dose: 168.5 mg/kg/injection, schedule: Q01DX009 (oral), vehicle: saline with Tween-80): 108 % of control

Structure (SMILES): CC(C)=CC(=O)OC1C2C(C)=CC(=O)C(O)C2(C)C2C3(O)OCC24C(CC(=O)OC14)C(C)C3O (centres undefined)
- T/C (dose: 0.5 mg/kg/injection, schedule: Q01DX009 (ip), vehicle: distilled water + Tween-80): 161 % of control
- T/C (dose: 1.0 mg/kg/injection, schedule: Q01DX009 (ip), vehicle: distilled water + Tween-80): 169 % of control and 198 % of control
- T/C (dose: 2.0 mg/kg/injection, schedule: Q01DX009 (ip), vehicle: distilled water + Tween-80): 180 % of control and 191 % of control

Structure (SMILES): CN1CCC(=C(C#N)C(=O)O)CC1
- T/C [1]: 103 % of control
- T/C [2]: 95 % of control
- T/C [3]: 103 % of control

Structure (SMILES): Cc1cc(Cl)ccc1OCC1OC(=O)C(C)(C)O1 (centres undefined)
- T/C [14]: 100 % of control
- T/C [15]: 100 % of control
- T/C [16]: 101 % of control

Structure (SMILES): Cn1c2c(c(=O)c3ccccc31)CCC(C)(C)O2
- T/C [13]: 100 % of control
- T/C [17]: 91 % of control
- T/C [18]: 98 % of control
